System: NCI-H295R
Assay: IC50 (antiproliferative, ATP content)
Details: 48 h
Method in brief: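 Adrenocortical carcinoma cells were plated at 1500 per well in 1536-well plates in serum-free DMEM with ITS supplement, left overnight, then given library compounds by pin transfer at 8 final concentrations spanning 0.6 nM to 46 µM and held 48 h at 37 °C, 5% CO2. ATP was measured as CellTiter-Glo luminescence after 20 min at room temperature and scaled between vehicle and positive-control wells. A four-parameter logistic model was fitted to each series. The IC50 was taken from these fits, and compounds without a concentration response were recorded as above the top dose.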

| SMILES | IC50 [µM] |
| --- | --- |
| O=C1Nc2ccc(Cl)cc2C(c2ccccc2Cl)=NC1O (stereo not given) | > 46 |
| CC(=O)NO | > 46 |
| O=C2O[C@H](C)C/C=C/C=C/C=C/C=C/[C@H](O[C@@H]3O[C@H](C)[C@@H](O)[C@H](N)[C@@H]3O)C[C@]([C@H]([C@@](O)=O)[C@@H](O)C4)([H])O[C@]4(O)C[C@@H](O)C[C@@]1([H])O[C@@]([H])1/C=C/2 | > 46 |
| CC(C)NCC(O)c1ccc2ccccc2c1 (stereo not given) | > 46 |
| Cc1ccsc1/C=C/C1=NCCCN1C.O=C(O)[C@@H](O)[C@H](O)C(=O)O | > 46 |
| CCN(CC)C(=O)c1cccc(C)c1 | > 46 |
| CC(C)NC[C@@H](O)COc1ccc(CC(N)=O)cc1 | > 46 |
| CCOC(=O)C1(c2ccccc2)CCN(CCC(C#N)(c2ccccc2)c2ccccc2)CC1.Cl | > 46 |
| Nc1ncnc2c1ncn2[C@@H]1O[C@H](COP(=O)(O)OP(=O)(O)OP(=O)(O)O)[C@@H](O)[C@H]1O | > 46 |
| CC(C[N+](C)(C)C)OC(N)=O.[Cl-] (stereo not given) | > 46 |
| Br.CC(Cc1ccc(O)cc1)NCC(O)c1cc(O)cc(O)c1 (stereo not given) | > 46 |
| Cc1ccccc1/N=N/c1ccc(/N=N/c2c(O)ccc3ccccc23)c(C)c1 | > 46 |
| CCCCC | > 46 |
| O=C1CCC(c2ccc(-n3ccnc3)cc2)=NN1 | > 46 |
| CCCCC/C=C\C/C=C\C/C=C\CCCCC(=O)O | > 46 |
| CC1=C(CC(=O)O)c2cc(F)ccc2/C1=C\c1ccc(S(C)=O)cc1 (stereo not given) | > 46 |
| CCCCCCCCCCCCOCCCN | > 46 |
| CCCCN1CCCC[C@H]1C(=O)Nc1c(C)cccc1C.Cl | > 46 |
| O=C(OCc1ccccc1)c1cccnc1 | > 46 |
| CCC(N)Cc1c[nH]c2ccccc12 (stereo not given) | > 46 |
| CN1CCCC(CC2c3ccccc3Sc3ccccc32)C1.Cl (stereo not given) | > 46 |
| NS(=O)(=O)c1cc(-c2nnn[nH]2)c(NCc2cccs2)cc1Cl | > 46 |

| SMILES | IC50 [µM] |
| --- | --- |
| CS(=O)(=O)O.Cc1ccc2c(c1)c1c3n2CCNC3CCC1 (stereo not given) | > 46 |
| O=C(O)CCC/C=C\C[C@@H]1[C@@H](/C=C/[C@@H](O)COc2cccc(C(F)(F)F)c2)[C@H](O)C[C@@H]1O | > 46 |
| O=c1cc(O)c(Cl)c[nH]1 | > 46 |
| CNC1(c2ccccc2Cl)CCCCC1=O (stereo not given) | > 46 |
| NCC(O)c1ccc(O)cc1 (stereo not given) | > 46 |
| O=c1n(Cl)c(=O)n(Cl)c(=O)n1Cl | > 46 |
| CN(C)CCN1C(=O)c2ccccc2N(C)c2ccccc21.Cl | > 46 |
| ClCC1CO1 (stereo not given) | > 46 |
| CO/N=C(\C(=O)N[C@@H]1C(=O)N2C(C(=O)O)=C(C[N+]3(C)CCCC3)CS[C@H]12)c1csc(N)n1.Cl.O.[Cl-] | > 46 |
| CC(=O)OC(C)C[N+](C)(C)C.[Cl-] (stereo not given) | > 46 |
| NCCC(O)(P(=O)(O)O)P(=O)(O)O | > 46 |
| O=C(CS(=O)Cc1ccco1)NC/C=C\COc1cc(CN2CCCCC2)ccn1 (stereo not given) | > 46 |
| CN1CCN(C(c2ccccc2)c2ccc(Cl)cc2)CC1.Cl (stereo not given) | > 46 |
| CCN(CC)CCNC(C(=O)OCCC(C)C)c1ccccc1 (stereo not given) | > 46 |
| C/C=C/C[C@@H](C)[C@@H](O)[C@H]1C(=O)N[C@@H](CC)C(=O)N(C)CC(=O)N(C)[C@@H](CC(C)C)C(=O)N[C@@H](C(C)C)C(=O)N(C)[C@@H](CC(C)C)C(=O)N[C@@H](C)C(=O)N[C@H](C)C(=O)N(C)[C@@H](CC(C)C)C(=O)N(C)[C@@H](CC(C)C)C(=O)N(C)[C@@H](C(C)C)C(=O)N1C | > 46 |
| CCNC1(c2cccs2)CCCCC1=O.Cl (stereo not given) | > 46 |
| CO[C@H]1/C=C/O[C@@]2(C)Oc3c(C)c(O)c4c(O)c(c5c(nc6cc(C)ccn65)c4c3C2=O)NC(=O)/C(C)=C\C=C\[C@H](C)[C@H](O)[C@@H](C)[C@@H](O)[C@@H](C)[C@H](OC(C)=O)[C@@H]1C | > 46 |
| O=C3N1/C(=C(/C)CS[C@@H]1[C@@H]3NC(=O)[C@H](N)c2ccc(O)cc2)C(O)=O | > 46 |
| c1ccc2sc(SNC3CCCCC3)nc2c1 | > 46 |
| CCCCCN(CCCCC)C(=O)C(CCC(=O)[O-])NC(=O)c1ccc(Cl)c(Cl)c1.[Na+] (stereo not given) | > 46 |
| CCNC(=O)/C=C/c1cccc(Br)c1 | > 46 |
| Cc1ncc([N+](=O)[O-])n1CC(C)O (stereo not given) | > 46 |

| SMILES | IC50 [µM] |
| --- | --- |
| O=C(O)c1cc(-c2ccccc2)nc2ccccc12 | > 46 |
| C/C(=C(/CCOP(=O)(O)O)SC(=O)c1ccccc1)N(C=O)Cc1cnc(C)nc1N | > 46 |
| CC(=O)N=c1sc(S(N)(=O)=O)nn1C | > 46 |
| N=C(N)NN.N=C(N)NN.O=S(=O)(O)O | > 46 |
| Cc1ccccc1OCC(O)CO (stereo not given) | > 46 |
| Nc1nc2ccc(OC(F)(F)F)cc2s1 | > 46 |
| NNc1nnc(NN)c2ccccc12 | > 46 |
| O=C(CC)O[C@@]1([C@@]2=CC=CC=C2)[C@H](C)CN(C)CC1 | > 46 |
| Nc1ncnc(Nc2ccccc2)n1 | > 46 |
| [H][C@]1(CC3)C[C@@H](OC(C(C5=CC=CC=C5)(O)C4=CC=CC=C4)=O)C[C@]3([H])[N@+]21CCCC2.[Cl-] | > 46 |
| CS(=O)(=O)c1ccc([C@@H](O)[C@@H](CF)NC(=O)C(Cl)Cl)cc1 | > 46 |
| Nc1ncnc2c1ncn2CCOCP(=O)(O)O | > 46 |
| CC(=O)NCc1c(I)c(NC(C)=O)c(I)c(C(=O)O)c1I | > 46 |
| Cc1onc(-c2ccccc2Cl)c1C(=O)N[C@@H]1C(=O)N2[C@@H]1SC(C)(C)[C@@H]2C(=O)[O-].[Na+] | > 46 |
| Cl.NNc1ccccc1 | > 46 |
| CC(C)NCC(O)c1ccc(NS(C)(=O)=O)cc1.Cl (stereo not given) | > 46 |
| O=[C@@](OCC2=CC=CC(OC3=CC=CC=C3)=C2)[C@H]1C(C)(C)C1/C=C(C)/C (stereo not given in full) | > 46 |
| COP(=O)(OC)C(O)C(Cl)(Cl)Cl (stereo not given) | > 46 |
| Oc1ccc(C2CNCCc3c2cc(O)c(O)c3Cl)cc1 (stereo not given) | > 46 |
| CC(C)(C)NC(=O)[C@H]4CC[C@@H]3[C@]4(C)CC[C@H]1[C@H]3CC[C@H]2NC(=O)\C=C/[C@]12C | > 46 |
| C[C@H]1CCC[C@H](O)CCCCCc2cc(O)cc(O)c2C(=O)O1 | > 46 |
| CCN(CC)Cc1cc(Nc2ccnc3cc(Cl)ccc23)ccc1O.Cl.Cl.O.O | > 46 |

| SMILES | IC50 [µM] |
| --- | --- |
| COc1ccccc1N1CCN(CCCNc2cc(=O)n(C)c(=O)n2C)CC1.Cl | > 46 |
| C#CC(C)(O)CC (stereo not given) | > 46 |
| COC(=O)c1ccccc1O | > 46 |
| Cc1ccc(C(C)(C)c2ccc(C)cc2)cc1 | > 46 |
| O=C1[C@@](CC2)(C)[C@@](C)(C)[C@H]2C1 | > 46 |
| CCCN1CCC[C@@H]2Cc3nc(N)ncc3C[C@H]21 | > 46 |
| CC1(C)S[C@@H]2[C@H](NC(=O)C(N)c3ccccc3)C(=O)N2[C@H]1C(=O)OC1OC(=O)c2ccccc21.Cl (stereo not given in full) | > 46 |
| CCC1(c2ccc(N)cc2)CCC(=O)NC1=O (stereo not given) | > 46 |
| Cl.C/C(C)=N\Nc2c(cnc1c2cnn1CC)C(=O)OCC | > 46 |
| CNc1c2c(nn1C)CCCC2 | > 46 |
| CC(CNC1CCCCC1)OC(=O)c1ccccc1.Cl (stereo not given) | > 46 |
| CC1NCCOC1c1ccccc1.Cl (stereo not given) | > 46 |
| N#Cc1c(N(CC(=O)[O-])CC(=O)[O-])sc(C(=O)[O-])c1CC(=O)[O-].O.O.O.O.O.O.O.[Sr+2].[Sr+2] | > 46 |
| CN(C)CCCN1c2ccccc2Sc2ccc(C(F)(F)F)cc21.Cl | > 46 |
| CN1CC(=O)NC1=N | > 46 |
| CCc1cc(C(N)=S)ccn1 | > 46 |
| CCOC(=O)[C@@H](N)CS.Cl | > 46 |
| NCc1cccnc1 | > 46 |
| O=C([O-])CN(CCN(CC(=O)[O-])CC(=O)[O-])CC(=O)[O-].[Fe+3].[Na+] | > 46 |
| CC(=O)N(O)CCCCCNC(=O)CCC(=O)N(O)CCCCCNC(=O)CCC(=O)N(O)CCCCCN.CS(=O)(=O)O | > 46 |
| CC(Cc1ccccc1)NCc1ccccc1Cl.Cl (stereo not given) | > 46 |
| CCN1CCCC1=O | > 46 |

| SMILES | IC50 [µM] |
| --- | --- |
| O=c1[nH]c(=O)n([C@H]2C[C@H](O)[C@@H](CO)O2)cc1/C=C/Br | > 46 |
| CCN1CCc2nc(N)oc2CC1.Cl.Cl | > 46 |
| Cn1nnnc1SCC1=C(C(=O)[O-])N2C(=O)[C@@H](NC(=O)[C@H](O)c3ccccc3)[C@H]2SC1.[Na+] | > 46 |
| N[C@H](C)[C@@H](O)[C@]1=CC=CC=C1.Cl | > 46 |
| C=O | > 46 |
| CC1=NN(c2ccccc2)C(=O)C1 | > 46 |
| OCC(=O)[C@@]3(O)CC[C@H]2[C@@H]4CC\C1=C\C(=O)CC[C@]1(C)[C@H]4C(=O)C[C@@]23C | > 46 |
| Nc1nc2c(ncn2COC(CO)CO)c(=O)[nH]1 | > 46 |
| C=C1CC[C@@]2(O)[C@H]3Cc4ccc(O)c5c4[C@@]2(CCN3CC2CC2)[C@H]1O5 | > 46 |
| CC[N+](C)(CC)CCOC(=O)C(O)(c1ccccc1)c1ccccc1.[Br-] | > 46 |
| O=C(O)c1ccc2[nH]cc(CCCCN3CC=C(c4ccccc4)CC3)c2c1 | > 46 |
| NC(CS)C(=O)O (stereo not given) | > 46 |
| O=C(O)c1ccc(OCCCOc2ccc(C(=O)O)cc2)cc1 | > 46 |
| CNC1(C)C2CCC(C2)C1(C)C (stereo not given) | > 46 |
| CN1[C@@H]2CC[C@H]1C[C@@H](OC(c1ccccc1)c1ccccc1)C2 | > 46 |
| CC[N+](C)(C)Cc1ccccc1Br.Cc1ccc(S(=O)(=O)[O-])cc1 | > 46 |
| Cn1c(=O)c2c(ncn2CC(O)CO)n(C)c1=O (stereo not given) | > 46 |
| Cc1cc(=O)[nH]c(=S)[nH]1 | > 46 |
| COc1ccc(C(Cl)=C(c2ccc(OC)cc2)c2ccc(OC)cc2)cc1 | > 46 |
| COP(=O)(OC)OC=C(Cl)Cl | > 46 |
| CCN(CC)CCNC(=O)COc1ccc(OC)cc1.Cl | > 46 |
| Nc1nc(=O)c2c([nH]1)NCC(CNc1ccc(C(=O)N[C@@H](CCC(=O)[O-])C(=O)[O-])cc1)N2C=O.[Ca+2] (stereo not given in full) | > 46 |

Reference: the supplement of paper PMC3493320
